Data taken from patent publication US9822157B2 (priority 2013, dated 2017).
Like-named read-outs stand apart in the source and are kept apart here.

Biological target: T1, human ferroportin (Homo sapiens, UniProt Q9NP59)
T1 sequence (Q9NP59 1-571): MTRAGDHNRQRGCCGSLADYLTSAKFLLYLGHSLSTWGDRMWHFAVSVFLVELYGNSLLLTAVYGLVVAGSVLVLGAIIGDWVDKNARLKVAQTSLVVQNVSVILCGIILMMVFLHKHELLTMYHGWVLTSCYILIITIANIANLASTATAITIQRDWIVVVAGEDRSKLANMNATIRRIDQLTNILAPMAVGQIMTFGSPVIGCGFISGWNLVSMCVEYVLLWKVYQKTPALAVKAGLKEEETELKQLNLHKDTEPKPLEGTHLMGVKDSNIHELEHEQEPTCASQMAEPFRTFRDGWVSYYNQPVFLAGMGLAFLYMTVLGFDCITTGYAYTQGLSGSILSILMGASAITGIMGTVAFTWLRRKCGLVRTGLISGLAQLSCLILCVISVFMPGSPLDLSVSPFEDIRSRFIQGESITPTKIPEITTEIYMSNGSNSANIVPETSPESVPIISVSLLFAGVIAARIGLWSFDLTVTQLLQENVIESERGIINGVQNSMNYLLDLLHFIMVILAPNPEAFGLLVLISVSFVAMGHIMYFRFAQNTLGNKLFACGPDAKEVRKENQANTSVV
Assay type: cell-based
Details: for % Activity At 1 uM: at 1 uM peptide, monomers and disulphide-linked dimers
Description: The cDNA encoding the human ferroportin (SLC40A1) was cloned from a cDNA clone from Origene (NM_014585). The DNA encoding the ferroportin was amplified by PCR using primers also encoding terminal restriction sites for subcloning, but without the termination codon. The ferroportin receptor was subcloned into a mammalian GFP expression vector containing a neomycin (G418) resistance marker in such that the reading frame of the ferroportin was fused in frame with the GFP protein. The fidelity of the DNA encoding the protein was confirmed by DNA sequencing. HEK293 cells were used for transfection of the ferroportin-GFP receptor expression plasmid. The cells were grown according to standard protocol in growth medium and transfected with the plasmids using Lipofectamine (manufacturer's protocol, Invitrogen). […] The cells were propagated and frozen in aliquots.
A retro inverse peptide is a peptide with a reversed sequence in all D amino acids. […] The EC50 of these reference compounds for ferroportin degradation was determined according to the activity assay described above.

[1] = Hepcidin analog peptides, read-out: Potency EC50
[2] = read-out: EC50 (n > 3), alanine scan of Compound 1
[3] = read-out: EC50 (nM) (n > 3), alanine scan of Compound 18
[4] = read-out: EC50 (nM) (n > 3), alanine scan of Compound 1
[5] = read-out: EC50 (n = 3), cells printed in μM, in vitro activity as in Example 2, peptide monomers and dimers dimerized through a single disulphide linkage, n = 3
[6] = read-out: EC50 (nM) (n = 3), in vitro activity as in Example 2, peptide monomers and dimers dimerized through a single disulphide linkage, n = 3

(Isovaleric acid-DTHFPCIKF-NH2)2 [Compound 326]
% Activity At 1 uM: 100%

H-ATHFPCIIF-NH2 [Compound 284]
EC50 [1]: > 1000 nM | EC50 [2]: > 1000 nM

H-ATHFPICIFGPRSKGWVCM-NH2 (cysteine pairing not given here) [Compound 33]
EC50 [1]: 184 nM | EC50 [3]: 184 nM

H-DAHFPCIIF-NH2 [Compound 52]
EC50 [1]: 388 nM | EC50 [4]: 388 nM

H-DTAFPCIIF-NH2 [Compound 283]
EC50 [1]: 739 nM | EC50 [4]: 739 nM

H-DTAFPICIFGPRSKGWVCM-NH2 (cysteine pairing not given here) [Compound 60]
EC50 [1]: 498 nM | EC50 [3]: 498 nM

H-DTHAPCIIF-NH2 [Compound 282]
Potency EC50 (nM) (Hepcidin analog peptides): Inactive | EC50 (nM) (n > 3) (alanine scan of Compound 1): Not active

H-DTHAPICIFGPRSKGWVCM-NH2 (cysteine pairing not given here) [Compound 38]
EC50 [1]: 254 nM | EC50 [3]: 254 nM

H-DTHCPIAIF-NH2 [Compound 277]
Potency EC50 (nM) (Hepcidin analog peptides): Inactive | EC50 (nM) (n > 3) (cysteine replacement scan of Mini-Hepcidin derivatives): Not active

H-DTHFACIIF-NH2 [Compound 280]
EC50 [1]: > 1000 nM | EC50 [2]: > 1000 nM

H-DTHFAICIFGPRSKGWVCM-NH2 (cysteine pairing not given here) [Compound 26]
EC50 [1]: 147 nM | EC50 [3]: 147 nM

H-DTHFGCIIFGPRSKGWVCK-NH2 (cysteine pairing not given here) [Compound 123]
Potency EC50 (nM) (Hepcidin analog peptides): Inactive

H-DTHFKCIIFGPRSKGWVCK-NH2 (cysteine pairing not given here) [Compound 131]
Potency EC50 (nM) (Hepcidin analog peptides): Inactive

H-DTHFPCAIF-NH2 [Compound 279]
EC50 [1]: > 1000 nM | EC50 [2]: > 1000 nM

H-DTHFPCIAF-NH2 [Compound 51]
EC50 [1]: 382 nM | EC50 [4]: 382 nM

H-DTHFPCIEF-NH2 [Compound 287]
EC50 [1]: > 1000 nM

H-DTHFPCIEK-NH2 [Compound 310]
% Activity At 1 uM: 0% | EC50 [5]: > 1000 nM

H-DTHFPCIF-NH2 [Compound 293]
% Activity At 1 uM: 52%

H-DTHFPCIFF-NH2 [Compound 56]
EC50 [1]: 441 nM

H-DTHFPCIIA-NH2 [Compound 278]
EC50 [1]: > 1000 nM | EC50 [2]: > 1000 nM

H-DTHFPCIIFGPRARGWVCK-NH2 (cysteine pairing not given here) [Compound 87]
EC50 [1]: > 1000 nM

H-DTHFPCIIFGPRSKGWVCK-NH2 (cysteine pairing not given here) [Compound 86]
EC50 [1]: > 1000 nM

H-DTHFPCIIFGPRSKGWVCM-NH2 (cysteine pairing not given here) [Compound 21]
EC50 [1]: 46 nM

H-DTHFPCIIFGPRSRGVCK-NH2 (cysteine pairing not given here) [Compound 84]
EC50 [1]: > 1000 nM

H-DTHFPCIIFGPRSRGWRCK-NH2 (cysteine pairing not given here) [Compound 80]
EC50 [1]: > 1000 nM

H-DTHFPCIIFK-NH2 [Compound 55]
EC50 [1]: 419 nM

H-DTHFPCIIK-NH2 [Compound 304]
% Activity At 1 uM: 55% | EC50 [5]: > 1000 nM

H-DTHFPCIIR-NH2 [Compound 305]
% Activity At 1 uM: 62% | EC50 [5]: > 1000 nM

H-DTHFPCIKFF-NH2 [Compound 297]
% Activity At 1 uM: 64% | EC50 [6]: > 300 nM

H-DTHFPCIKFGPRSKGWVCM-NH2 (cysteine pairing not given here) [Compound 136]
EC50 [1]: 669 nM

H-DTHFPCILF-NH2 [Compound 308]
% Activity At 1 uM: 89% | EC50 [6]: > 300 nM

H-DTHFPCILK-NH2 [Compound 309]
% Activity At 1 uM: 55% | EC50 [6]: > 300 nM

H-DTHFPCIRFGPRSRGWRCK-NH2 (cysteine pairing not given here) [Compound 82]
EC50 [1]: > 1000 nM

H-DTHFPCIRFGPRSRGWVCK-NH2 (cysteine pairing not given here) [Compound 81]
EC50 [1]: > 1000 nM

H-DTHFPCISFGPRSKGWVCK-NH2 (cysteine pairing not given here) [Compound 101]
EC50 [1]: > 1000 nM
